Test results published in ChEMBL document CHEMBL4402557, “Nidufexor (LMB763), a Novel FXR Modulator for the Treatment of Nonalcoholic Steatohepatitis” (J Med Chem, 2020).
Active and inactive are the calls of the source. No cut-off for these calls is given here.

What was measured:
Rattus norvegicus [1] = assay: In-vivo agonist activity at FXR in orally dosed Han Wistar rat assessed as repression of CYP7a1 mRNA level in liver administered via oral gavage once daily for 14 days measured post last dose by qRT-PCR analysis; format: functional, organism-based
[2] = Clearance in Wistar rat at 3 mg/kg, iv; format: ADME, organism-based; details: in vivo
Androgen receptor = target: T1, Androgen receptor (Homo sapiens, UniProt P10275); assay: Agonist activity at androgen receptor (unknown origin) incubated for 2 hrs by TR-FRET assay
T1 sequence (P10275 whole entry): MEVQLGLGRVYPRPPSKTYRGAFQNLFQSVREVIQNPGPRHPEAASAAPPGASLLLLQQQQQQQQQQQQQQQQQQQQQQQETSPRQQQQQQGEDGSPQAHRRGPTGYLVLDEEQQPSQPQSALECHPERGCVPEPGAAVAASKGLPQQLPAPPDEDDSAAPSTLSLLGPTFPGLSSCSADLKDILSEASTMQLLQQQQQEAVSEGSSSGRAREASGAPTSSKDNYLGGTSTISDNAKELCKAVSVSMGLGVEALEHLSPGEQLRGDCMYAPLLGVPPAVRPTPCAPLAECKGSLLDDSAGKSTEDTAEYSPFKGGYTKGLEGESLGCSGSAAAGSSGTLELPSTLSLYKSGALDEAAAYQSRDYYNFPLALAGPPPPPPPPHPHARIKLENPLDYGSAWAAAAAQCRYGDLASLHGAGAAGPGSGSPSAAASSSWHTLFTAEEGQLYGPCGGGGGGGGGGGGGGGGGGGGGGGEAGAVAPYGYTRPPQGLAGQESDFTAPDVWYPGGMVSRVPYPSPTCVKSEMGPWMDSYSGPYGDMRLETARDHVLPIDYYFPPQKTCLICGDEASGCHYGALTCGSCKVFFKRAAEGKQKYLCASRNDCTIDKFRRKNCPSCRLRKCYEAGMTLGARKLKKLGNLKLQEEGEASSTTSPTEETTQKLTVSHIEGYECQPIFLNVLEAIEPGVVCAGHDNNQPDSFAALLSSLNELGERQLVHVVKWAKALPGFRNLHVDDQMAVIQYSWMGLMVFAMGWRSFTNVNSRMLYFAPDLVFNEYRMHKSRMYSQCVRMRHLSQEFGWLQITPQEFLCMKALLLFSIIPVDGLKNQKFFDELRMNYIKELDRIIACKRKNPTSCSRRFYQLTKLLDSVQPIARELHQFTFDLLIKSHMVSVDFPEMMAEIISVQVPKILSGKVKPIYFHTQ

Mus musculus [3] = organism: Mus musculus; assay: Anti Steato-hepatitic activity in C57BL/6J mouse STAM model assessed as change in Aldh1l2 gene level in liver; format: functional, organism-based
[4] = target: T2, Peroxisome proliferator-activated receptor gamma (Homo sapiens, UniProt P37231); assay: Agonist activity at GAL4-fused PPARgamma (unknown origin) expressed in HEK293T cells incubated for 24 by BrightGlo reagent based assay; format: cell-based
T2 sequence (P37231 whole entry): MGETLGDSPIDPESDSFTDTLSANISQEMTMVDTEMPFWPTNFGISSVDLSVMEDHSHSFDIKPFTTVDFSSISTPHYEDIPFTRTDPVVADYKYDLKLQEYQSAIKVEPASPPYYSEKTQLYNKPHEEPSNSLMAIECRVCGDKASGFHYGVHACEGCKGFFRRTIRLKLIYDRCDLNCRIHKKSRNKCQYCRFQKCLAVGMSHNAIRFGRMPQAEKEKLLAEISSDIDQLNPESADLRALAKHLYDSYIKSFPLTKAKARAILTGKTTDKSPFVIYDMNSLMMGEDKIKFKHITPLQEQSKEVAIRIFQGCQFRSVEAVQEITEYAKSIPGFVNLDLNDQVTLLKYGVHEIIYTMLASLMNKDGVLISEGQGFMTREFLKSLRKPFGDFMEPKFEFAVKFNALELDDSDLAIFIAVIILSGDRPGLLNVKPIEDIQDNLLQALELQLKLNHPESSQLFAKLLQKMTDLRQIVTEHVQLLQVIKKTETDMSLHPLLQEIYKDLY

[5] = Metabolic stability in rat liver microsomes assessed as hepatic extraction ratio; format: ADME, Microsome; details: read-out: ERH
[6] = AUC in Wistar rat brain at 10 mg/kg, po; format: ADME, organism-based
[7] = AUC in Wistar rat at 100 mg/kg, po; format: ADME, organism-based; details: in vivo
Mus musculus [8] = organism: Mus musculus; assay: Anti Steato-hepatitic activity in C57BL/6J mouse STAM model assessed as change in Cyp8b1 gene level in liver; format: functional, organism-based
Rattus norvegicus [9] = assay: In-vivo agonist activity at FXR in orally dosed Han Wistar rat assessed as repression of CYP8b1 mRNA level in liver administered via oral gavage once daily for 14 days measured post last dose by qRT-PCR analysis; format: functional, organism-based
[10] = AUC in Wistar rat at 10 mg/kg, po; format: ADME, organism-based; details: in vivo
[11] = Clearance in rabbit at 5 mg/kg, iv; format: ADME, organism-based, Oryctolagus cuniculus; details: in vivo
[12] = Half life in dog at 0.5 mg/kg, iv; format: ADME, organism-based, Canis lupus familiaris; details: in vivo
[13] = AUC in Wistar rat at 300 mg/kg, po; format: ADME, organism-based; details: in vivo
[14] = Cmax in Wistar rat at 10 mg/kg, po; format: ADME, organism-based; design: dose 10 mg/kg, route oral; details: in vivo
[15] = target: T3, Oxysterols receptor LXR-alpha (Homo sapiens, UniProt Q13133); assay: Agonist activity at GAL4-fused LXR LBD (unknown origin) expressed in HEK293T cells incubated for 24 by BrightGlo reagent based assay; format: cell-based
T3 sequence (Q13133 whole entry): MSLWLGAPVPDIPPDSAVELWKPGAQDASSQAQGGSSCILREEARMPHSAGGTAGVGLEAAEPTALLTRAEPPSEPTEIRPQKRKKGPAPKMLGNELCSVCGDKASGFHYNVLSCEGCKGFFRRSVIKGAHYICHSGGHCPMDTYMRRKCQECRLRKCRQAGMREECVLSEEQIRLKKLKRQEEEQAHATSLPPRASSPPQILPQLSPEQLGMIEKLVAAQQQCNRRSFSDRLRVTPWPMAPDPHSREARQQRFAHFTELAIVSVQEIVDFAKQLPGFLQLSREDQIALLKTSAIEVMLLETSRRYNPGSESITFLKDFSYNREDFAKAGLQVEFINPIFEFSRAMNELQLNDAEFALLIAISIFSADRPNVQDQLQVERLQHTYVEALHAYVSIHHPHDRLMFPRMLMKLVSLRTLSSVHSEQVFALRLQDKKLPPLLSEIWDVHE

[16] = target: T4, G-protein coupled bile acid receptor 1 (Homo sapiens, UniProt Q8TDU6); assay: Agonist activity at human GPBAR1 expressed in Jurkat cells assessed as increase in intracellular cAMP level incubated for 1 hr by fluorescence based assay; format: functional, cell-based
T4 sequence (Q8TDU6 whole entry): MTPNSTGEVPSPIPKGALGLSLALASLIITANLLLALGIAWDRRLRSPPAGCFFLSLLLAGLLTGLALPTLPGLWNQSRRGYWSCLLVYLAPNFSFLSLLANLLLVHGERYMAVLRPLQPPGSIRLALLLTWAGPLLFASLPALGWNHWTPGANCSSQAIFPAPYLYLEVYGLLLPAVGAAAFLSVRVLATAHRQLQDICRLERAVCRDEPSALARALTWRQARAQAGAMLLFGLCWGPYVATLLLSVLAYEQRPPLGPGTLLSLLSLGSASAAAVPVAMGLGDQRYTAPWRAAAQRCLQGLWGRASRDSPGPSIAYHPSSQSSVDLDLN

Cn1nc(C(=O)N(Cc2ccccc2)Cc2ccc(C(=O)O)cc2)c2c1-c1cc(Cl)ccc1OC2 [NIDUFEXOR]
Activity (Rattus norvegicus [1]): Active | clearance [2]: 7 mL/min/kg | EC50 (Androgen receptor): > 30 µM | Activity (Mus musculus [3]): Active | EC50 [4]: > 10 µM | hepatic extraction ratio [5]: < 0.18 | AUC [6]: 1.11 µM·h | AUC [7]: 399 µM·h | Activity (Mus musculus [8]): Active | Activity (Rattus norvegicus [9]): Active | AUC [10]: 25.4 µM·h | clearance [11]: 5.6 mL/min/kg | half-life [12]: 6.8 h | AUC [13]: 1040 µM·h | Cmax [14]: 12.4 µM | EC50 [15]: > 10 µM | EC50 [16]: > 80 µM
